Data from ChEMBL document CHEMBL4699525, “Design and synthesis of new indanol-1,2,3-triazole derivatives as potent antitubercular and antimicrobial agents” (Bioorg Med Chem Lett, 2020).
In brackets after ≈: the same amount, converted by molar mass. Activity calls are given as the source filed them. The rule behind the calls is not given here.

How the values were obtained:
[1] = molecular target: T1, Enoyl-[acyl-carrier-protein] reductase [NADH] (Mycobacterium tuberculosis) (UniProt P9WGR1); assay: Inhibition of InhA in Mycobacterium tuberculosis H37Rv assessed antitubercular activity by measuring inhibition of bacterial growth incubated for 7 days by MABA assay; conditions: time 7.0 day
T1 sequence (whole entry): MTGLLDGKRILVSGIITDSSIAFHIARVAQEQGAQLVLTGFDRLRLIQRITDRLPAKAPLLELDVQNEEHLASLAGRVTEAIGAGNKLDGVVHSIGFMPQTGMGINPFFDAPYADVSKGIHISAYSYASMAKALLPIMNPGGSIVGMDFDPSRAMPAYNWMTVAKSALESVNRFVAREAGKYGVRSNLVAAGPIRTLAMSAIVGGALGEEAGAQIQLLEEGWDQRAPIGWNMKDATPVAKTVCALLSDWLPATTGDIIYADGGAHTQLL

[2] = Cytotoxicity against human HEK293 cells assessed as inhibition of cell growth at 25 uM incubated for 48 hrs by MTT assay; assay type: cell-based
Staphylococcus aureus = assay: Antibacterial activity against Staphylococcus aureus assessed as inhibition of bacterial growth incubated for 24 hrs by agar well diffusion method; assay type: functional
Bacillus cereus = assay: Antibacterial activity against Bacillus cereus assessed as inhibition of bacterial growth incubated for 24 hrs by agar well diffusion method; assay type: functional
Bacillus subtilis = assay: Antibacterial activity against Bacillus subtilis assessed as inhibition of bacterial growth incubated for 24 hrs by agar well diffusion method; assay type: functional
Klebsiella aerogenes = assay: Antibacterial activity against Enterobacter aerogenes assessed as inhibition of bacterial growth incubated for 24 hrs by agar well diffusion method; assay type: functional
Escherichia coli = assay: Antibacterial activity against Escherichia coli assessed as inhibition of bacterial growth incubated for 24 hrs by agar well diffusion method; assay type: functional
Salmonella typhi = assay: Antibacterial activity against Salmonella typhi assessed as inhibition of bacterial growth incubated for 24 hrs by agar well diffusion method; assay type: functional; conditions: Salmonella enterica subsp. enterica serovar Typhi
Pseudomonas aeruginosa = assay: Antibacterial activity against Pseudomonas aeruginosa assessed as inhibition of bacterial growth incubated for 24 hrs by agar well diffusion method; assay type: functional
Shigella boydii = assay: Antibacterial activity against Shigella boydii assessed as inhibition of bacterial growth incubated for 24 hrs by agar well diffusion method; assay type: functional
[3] = tested on: Salmonella enterica subsp. enterica serovar Abony; assay: Antibacterial activity against Salmonella abony assessed as inhibition of bacterial growth incubated for 24 hrs by agar well diffusion method; assay type: functional
Aspergillus niger = assay: Antifungal activity against Aspergillus niger assessed as inhibition of fungal growth incubated for 24 hrs by agar well diffusion method; assay type: functional
Candida albicans = assay: Antifungal activity against Candida albicans assessed as inhibition of fungal growth incubated for 24 hrs by agar well diffusion method; assay type: functional
Saccharomyces cerevisiae = assay: Antifungal activity against Saccharomyces cerevisiae assessed as inhibition of fungal growth incubated for 24 hrs by agar well diffusion method; assay type: functional

Row | SMILES | MIC [1] [µM] | inhibition at 48 h, 25 µM [2] [%] | diameter of the inhibition zone (DIZ) (Staphylococcus aureus) | diameter of the inhibition zone (DIZ) (Bacillus cereus) | diameter of the inhibition zone (DIZ) (Bacillus subtilis) | diameter of the inhibition zone (DIZ) (Klebsiella aerogenes) | diameter of the inhibition zone (DIZ) (Escherichia coli) | diameter of the inhibition zone (DIZ) (Salmonella typhi) | diameter of the inhibition zone (DIZ) (Pseudomonas aeruginosa) | diameter of the inhibition zone (DIZ) (Shigella boydii) | diameter of the inhibition zone (DIZ) [3] | diameter of the inhibition zone (DIZ) (Aspergillus niger) | diameter of the inhibition zone (DIZ) (Candida albicans) | diameter of the inhibition zone (DIZ) (Saccharomyces cerevisiae)
1 | Cc1cccc(-n2cc(COc3ccc4c(c3)CCC4)nn2)c1 | 12.5 (≈ 3.82 µg/mL) | 23.4 | 6 mm | inactive | inactive | inactive | inactive | inactive | inactive | inactive | inactive | inactive | 10 mm | 13 mm
2 | Cc1cc(C)c(-n2cc(COc3ccc4c(c3)CCC4)nn2)c(C)c1 | 6.25 (≈ 2.08 µg/mL) | 16.6 | inactive | inactive | inactive | inactive | inactive | inactive | inactive | inactive | inactive | inactive | inactive | inactive
3 | COc1cccc(-n2cc(COc3ccc4c(c3)CCC4)nn2)c1 | 12.5 (≈ 4.02 µg/mL) | 25.8 | 12 mm | inactive | inactive | inactive | 10 mm | – | 9 mm | 13 mm | 11 mm | – | 12 mm | inactive
4 | COc1ccccc1-n1cc(COc2ccc3c(c2)CCC3)nn1 | 12.5 (≈ 4.02 µg/mL) | 19.8 | 10 mm | inactive | inactive | inactive | inactive | inactive | inactive | inactive | inactive | inactive | 10 mm | inactive
5 | c1ccc(-n2cc(COc3ccc4c(c3)CCC4)nn2)cc1 | 25 (≈ 7.28 µg/mL) | 23.4 | 7 mm | inactive | inactive | inactive | inactive | inactive | inactive | inactive | inactive | inactive | 12 mm | 8 mm
6 | O=C(Cn1cc(COc2ccc3c(c2)CCC3)nn1)Nc1ccc(Cl)cc1 | > 25 | – | 8 mm | inactive | inactive | inactive | inactive | inactive | inactive | inactive | inactive | inactive | 15 mm | 10 mm
7 | O=C(Cn1cc(COc2ccc3c(c2)CCC3)nn1)Nc1ccc(Br)cc1 | > 25 | – | inactive | inactive | inactive | 12 mm | inactive | inactive | 5 mm | 13 mm | inactive | inactive | inactive | 12 mm
8 | Clc1ccc(-n2cc(COc3ccc4c(c3)CCC4)nn2)cc1 | > 25 | – | 8 mm | inactive | inactive | inactive | inactive | inactive | inactive | inactive | inactive | inactive | 10 mm | 8 mm
9 | COc1ccc(NC(=O)Cn2cc(COc3ccc4c(c3)CCC4)nn2)cc1 | > 25 | – | inactive | inactive | inactive | inactive | inactive | inactive | inactive | inactive | inactive | inactive | inactive | inactive
10 | Cc1ccc([N+](=O)[O-])cc1NC(=O)Cn1cc(COc2ccc3c(c2)CCC3)nn1 | > 25 | – | inactive | inactive | inactive | 12 mm | inactive | inactive | 9 mm | 9 mm | inactive | inactive | inactive | inactive
